Key:
HeLa-S3 = assay: Gene transfer (GFP expression, luciferase activity) versus commercial agents (Example 5); assay type: cell-based; settings: HeLa-S3 adherent cells; compared with Lipofectamine LTX and FuGENE HD
Procedure: pEGFP-C1 expressing a green fluorescent protein was used as a gene transfer plasmid; and adherent cells COS-7 and Hela-S3, and non-adherent cells K562, which were established cell lines, were used as target cells. Lipoplexes were individually prepared using DL-U2. Then, gene transfer was performed.
(HeLa—S3 cells: 3×10^4 cells/well·DMEM+10% FBS (Pe/St) 500 μl)
(i) A 20 mM Tris-HCl (pH 7.4) buffer was dispensed into three tubes at 35.5 μl (for NP ratio=6) for each of two tubes, and 23 μl (for NP ratio=8) for the remaining tube.
(ii) 1.0 μg of plasmid DNA (pCAG-GFP) was added to each of the three tubes prepared in step (i) at 2 μl (1.0 μg), and the contents were stirred.
(iii) A DL-U2 liposome solution was added to the three tubes prepared in step (ii) at 37.5 μl (N/P ratio=6) for each of two tubes, and 50 μl (N/P ratio=8) for the remaining tube.
(iv) 25 μl of an Opti-MEM (registered trademark) I Reduced-Serum Medium was further added, and the whole was thoroughly mixed and allowed to stand at room temperature for 5 minutes.
100 μl of the DL-plasmid DNA complex solution (N/P ratio=6) was added and mixed with the HeLa—S3 cells. […]
(vii) 48 hours later, luciferase activity was measured according to the protocol of the luciferase assay system (Promega, E1501) (relative values based on the activity of LTX defined as 1 were graphed).

NHDF-ad cells [1] = assay: GFP expression after gene transfer with lipoplexes (Example 4); assay type: cell-based, human; settings: GFP-expression plasmid
Procedure: A solvent was removed from each of chloroform solutions (1 mg/ml) of polyamidoamine dendrons (DL-G1 and DL-G1-U2) using a rotary evaporator to form 111.5 μg of lipid thin films. The thin films were dried in vacuo for 2 hours. Then, […] of phosphate buffered saline (PBS) were added. The mixtures were further sonicated for 2 minutes using a bath-type ultrasonicator to give 160 μl of lipid dispersion liquids. In addition, a solution (20 μg/ml, 160 μl) prepared by dissolving plasmid DNA in a 20 mM Tris-HCl buffer was added to each of the lipid dispersion liquids so as to obtain different N/P ratios. Then, the liquids were incubated at room temperature for 30 minutes to obtain lipoplexes.
pEGFP-C1 expressing a green fluorescent protein was used as a gene transfer plasmid, and NHDF-ad cells were used as target cells. Lipoplexes were prepared using, individually, DL-U2 and DL-G1. Then, gene transfer was performed.
NHDF-ad cells were seeded in a 24-well plate.
(NHDF-ad cells: 2.5×10^4 cells/well·DMEM+10% FBS (Pe/St) 500 μl)
(i) A 20 mM Tris-HCl (pH 7.4) buffer was dispensed into two tubes at, individually, 56.3 μl (for NP ratio=3) and 37.5 μl (for NP ratio=6).
(ii) 1.0 μg of plasmid DNA (pCAG-GFP) was added to each of the two tubes prepared in step (i) at 2 μl (1.0 μg), and the contents were stirred. […]

NHDF-ad cells [2] = assay: Toxicity evaluation, WST-8 kit (Example 6); assay type: cell-based, human; settings: WST-8, 48 hours
Procedure: (NHDF-ad cells: 3.5×10^3 cells/well·DMEM+10% FBS (Pe/St) 70 μl)
(i) A 20 mM Tris-HCl (pH 7.4) buffer was dispensed into two tubes at, individually, 54.25 μl (for DL-G1) and 35.5 μl (for DL-U2).
(ii) 1.0 μg of plasmid DNA (pEGFP-luc+) was added to each of the two tubes prepared in step (i) at 2 μl (1.0 μg), and the contents were stirred.
(iii) To the prepared plasmid DNA solutions was added 37.5 μl of a DL-U2 liposome solution (N/P ratio=6), and the whole was thoroughly mixed using a vortex and incubated at room temperature for 30 minutes.
(iv) 25 μl of an Opti-MEM(R) I Reduced-Serum Medium was further added, and the whole was thoroughly mixed and allowed to stand at room temperature for 5 minutes.
(v) 2.8 and 7.0 μl per well of the DL-plasmid DNA complex solutions was individually added to three wells, and the contents were mixed (the addition amount was one-seventh the addition amount in the luciferase activity measurement).
(vi) The cells were incubated at 37° C. in 5% CO2 for 4 hours, and the growth medium was replaced.
(vii) 48 hours later, toxicity evaluation was performed according to the protocol of a WST-8 kit (Kishida Chemical Co., Ltd.) (a well to which no lipoplex solution was added was defined as 100%). […]

K562 = assay: Cytotoxic evaluation on gene transfer (Example 5); assay type: cell-based; settings: compared with Lipofectamine LTX and FuGENE HD

CCCCCCCC/C=C\CCCCCCCCN(CCCCCCCC/C=C\CCCCCCCC)CCC(=O)NCCN(CCC(=O)NCCN)CCC(=O)NCCN (racemic) [DL-G1-U2]
gene transfer activity (HeLa-S3): excellent gene transfer activity
gene transfer into NHDF-ad cells (NHDF-ad cells [1]): allowed the gene to be transferred
cytotoxicity on GFP gene transfer (NHDF-ad cells [2]): lower than those of most of the commercially available transfer agents
cytotoxicity (K562): lower cytotoxicity

Source: patent US8557875B2, “Gene transfer agent composition containing polyamidoamine dendron” (Public University Corporation Osaka Prefecture University, priority 2009, dated 2013)
